This test addresses T1, human TRPA1 (Homo sapiens, UniProt O75762).
T1 construct: expressed in transfected cells; host or cells: Human embryonic kidney-derived 293T cells, transiently transfected with the pcDNA3.1/zeo(+) human TRPA1 plasmid
Description: Measurement of TRPA1 antagonist activity (intracellular calcium increase, FLIPR, allylisothiocyanate stimulation). The test is classed as cell-based. The settings on record: allylisothiocyanate 20 μM stimulation, FLIPR calcium assay; read-out: antagonism hTRPA1. Summed up: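 IC50 derives from a sigmoid fit of inhibition of the 5-min FLIPR fluorescence change evoked by 20 μM allylisothiocyanate, normalized between agonist and buffer responses. Test substance, diluted in HBSS/20 mM HEPES pH 7.2 plus 0.1% BSA, was applied 10 min beforehand at room temperature to Calcium4-loaded 293T cells transiently expressing human TRPA1.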
T1 sequence (O75762 whole entry): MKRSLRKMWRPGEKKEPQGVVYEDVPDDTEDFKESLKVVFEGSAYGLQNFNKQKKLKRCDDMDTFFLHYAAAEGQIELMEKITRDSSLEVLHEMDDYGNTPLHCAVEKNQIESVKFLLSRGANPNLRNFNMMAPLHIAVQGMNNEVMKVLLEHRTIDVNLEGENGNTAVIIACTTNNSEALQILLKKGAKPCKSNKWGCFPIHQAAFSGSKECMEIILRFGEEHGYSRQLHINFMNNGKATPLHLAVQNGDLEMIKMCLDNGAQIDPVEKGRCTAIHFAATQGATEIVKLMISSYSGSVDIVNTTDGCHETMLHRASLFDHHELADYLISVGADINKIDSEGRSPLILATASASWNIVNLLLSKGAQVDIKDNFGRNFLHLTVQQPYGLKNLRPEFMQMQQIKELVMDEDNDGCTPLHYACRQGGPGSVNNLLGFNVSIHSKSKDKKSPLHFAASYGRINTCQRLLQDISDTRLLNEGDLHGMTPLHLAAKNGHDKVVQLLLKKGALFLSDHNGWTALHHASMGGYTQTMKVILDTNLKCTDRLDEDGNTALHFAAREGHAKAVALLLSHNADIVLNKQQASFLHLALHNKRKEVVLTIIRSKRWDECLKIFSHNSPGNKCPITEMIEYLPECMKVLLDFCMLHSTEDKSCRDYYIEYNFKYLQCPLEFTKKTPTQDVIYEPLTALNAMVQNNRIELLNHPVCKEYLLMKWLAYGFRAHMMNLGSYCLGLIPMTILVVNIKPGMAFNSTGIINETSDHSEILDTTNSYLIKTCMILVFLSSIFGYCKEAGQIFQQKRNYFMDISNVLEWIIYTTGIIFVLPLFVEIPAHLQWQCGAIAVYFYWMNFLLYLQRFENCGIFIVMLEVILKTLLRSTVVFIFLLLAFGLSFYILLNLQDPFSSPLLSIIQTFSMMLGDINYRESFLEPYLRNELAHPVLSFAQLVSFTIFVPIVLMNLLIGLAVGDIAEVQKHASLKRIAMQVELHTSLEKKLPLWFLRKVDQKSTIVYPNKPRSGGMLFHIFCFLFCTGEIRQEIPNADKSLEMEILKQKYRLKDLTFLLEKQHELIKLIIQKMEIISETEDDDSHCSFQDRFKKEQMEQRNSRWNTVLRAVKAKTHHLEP
In the case of `N#Cc1ccc(S(=O)(=O)N2CCC[C@H]2C(=O)NCc2cccc(OCc3ccc(C(F)(F)F)cc3)c2)cc1` [Example 185, (2S)-1-(4-cyanophenyl)sulfonyl-N-[[3-[[4-(trifluoromethyl)phenyl]methoxy]phenyl]methyl]pyrrolidine-2-carboxamide], the IC50 was 240 nM. For the compound `O=C(NCc1cccc(Oc2ccc(C(F)(F)F)cc2)c1)[C@@H]1CCCN1S(=O)(=O)c1cccc(F)c1` [Example 186, (2S)-1-(3-fluorophenyl)sulfonyl-N-[[3-[4-(trifluoromethyl)phenoxy]phenyl]methyl]pyrrolidine-2-carboxamide], the IC50 is 71 nM. In the case of `O=C(NCc1cccc(Oc2ccc(C(F)(F)F)cc2)c1)[C@@H]1CCCN1S(=O)(=O)c1ccc(F)c(F)c1` [Example 187, (2S)-1-(3,4-difluorophenyl)sulfonyl-N-[[3-[4-(trifluoromethyl)phenoxy]phenyl]methyl]pyrrolidine-2-carboxamide], the IC50 was determined as 60 nM. For the compound `O=C(NCc1cccc(Oc2ccc(C(F)(F)F)cc2)c1)[C@@H]1CCCN1S(=O)(=O)c1cc(F)cc(F)c1` [Example 188, (2S)-1-(3,5-difluorophenyl)sulfonyl-N-[[3-[4-(trifluoromethyl)phenoxy]phenyl]methyl]pyrrolidine-2-carboxamide], the IC50 was determined as 100 nM. As to `O=C(NCc1cccc(Oc2ccc(C(F)(F)F)cc2)c1)[C@@H]1CCCN1S(=O)(=O)c1ccco1` [Example 189, (2S)-1-(2-furylsulfonyl)-N-[[3-[4-(trifluoromethyl)phenoxy]phenyl]methyl]pyrrolidine-2-carboxamide], the IC50 was 100 nM.

Consider `O=C(NCc1cccc(Oc2ccc(C(F)(F)F)cc2)c1)[C@@H]1CCCN1S(=O)(=O)c1ccsc1` [Example 190, (2S)-1-(3-thienylsulfonyl)-N-[[3-[4-(trifluoromethyl)phenoxy]phenyl]methyl]pyrrolidine-2-carboxamide], for which the IC50 was 35 nM.

For the compound `O=C(NCc1cccc(OCc2ccc(C(F)(F)F)cc2)c1)[C@@H]1CCCN1S(=O)(=O)c1ccccc1` [Example 191, (2S)-1-(benzenesulfonyl)-N-[[3-[[4-(trifluoromethyl)phenyl]methoxy]phenyl]methyl]pyrrolidine-2-carboxamide], the IC50 turned out to be 66 nM. As for `O=C(NCc1cccc(OCc2ccc(C(F)(F)F)cc2)c1)[C@@H]1CCCN1S(=O)(=O)c1cccc(F)c1` [Example 192, (2S)-1-(3-fluorophenyl)sulfonyl-N-[[3-[[4-(trifluoromethyl)phenyl]methoxy]phenyl]methyl]pyrrolidine-2-carboxamide], the IC50 amounted to 49 nM. For the compound `O=C(NCc1cccc(OCc2ccc(C(F)(F)F)cc2)c1)[C@@H]1CCCN1S(=O)(=O)c1cccc(Cl)c1` [Example 193, (2S)-1-(3-chlorophenyl)sulfonyl-N-[[3-[[4-(trifluoromethyl)phenyl]methoxy]phenyl]methyl]pyrrolidine-2-carboxamide], the IC50 was 260 nM. Next, `N#Cc1cccc(S(=O)(=O)N2CCC[C@H]2C(=O)NCc2cccc(OCc3ccc(C(F)(F)F)cc3)c2)c1` [Example 194, (2S)-1-(3-cyanophenyl)sulfonyl-N-[[3-[[4-(trifluoromethyl)phenyl]methoxy]phenyl]methyl]pyrrolidine-2-carboxamide]: 1100 nM; `CC(=O)c1ccc(S(=O)(=O)N2CCC[C@H]2C(=O)NCc2cccc(OCc3ccc(C(F)(F)F)cc3)c2)cc1` [Example 195, (2S)-1-(4-acetylphenyl)sulfonyl-N-[[3-[[4-(trifluoromethyl)phenyl]methoxy]phenyl]methyl]pyrrolidine-2-carboxamide]: 1700 nM; `COc1ccc(S(=O)(=O)N2CCC[C@H]2C(=O)NCc2cccc(OCc3ccc(C(F)(F)F)cc3)c2)cc1` [Example 196, (2S)-1-(4-methoxyphenyl)sulfonyl-N-[[3-[[4-(trifluoromethyl)phenyl]methoxy]phenyl]methyl]pyrrolidine-2-carboxamide]: 640 nM.

In the case of `COc1cccc(S(=O)(=O)N2CCC[C@H]2C(=O)NCc2cccc(OCc3ccc(C(F)(F)F)cc3)c2)c1` [Example 197, (2S)-1-(3-methoxyphenyl)sulfonyl-N-[[3-[[4-(trifluoromethyl)phenyl]methoxy]phenyl]methyl]pyrrolidine-2-carboxamide], the IC50 was 1700 nM. `COc1ccccc1S(=O)(=O)N1CCC[C@H]1C(=O)NCc1cccc(OCc2ccc(C(F)(F)F)cc2)c1` [Example 198, (2S)-1-(2-methoxyphenyl)sulfonyl-N-[[3-[[4-(trifluoromethyl)phenyl]methoxy]phenyl]methyl]pyrrolidine-2-carboxamide]: the IC50 is 3900 nM. `O=C(NCc1cccc(OCc2ccc(C(F)(F)F)cc2)c1)[C@@H]1CCCN1S(=O)(=O)c1ccc(OC(F)F)cc1` [Example 199, (2S)-1-[4-(difluoromethoxy)phenyl]sulfonyl-N-[[3-[[4-(trifluoromethyl)phenyl]methoxy]phenyl]methyl]pyrrolidine-2-carboxamide]: the IC50 is 2200 nM. The result for `O=C(NCc1cccc(OCc2ccc(C(F)(F)F)cc2)c1)[C@@H]1CCCN1S(=O)(=O)c1cccs1` [Example 200, (2S)-1-(2-thienylsulfonyl)-N-[[3-[[4-(trifluoromethyl)phenyl]methoxy]phenyl]methyl]pyrrolidine-2-carboxamide] reads 60 nM; that for `O=C(NCc1cccc(OCc2ccc(C(F)(F)F)cc2)c1)[C@@H]1CCCN1S(=O)(=O)c1cccnc1` [Example 201, (2S)-1-(3-pyridylsulfonyl)-N-[[3-[[4-(trifluoromethyl)phenyl]methoxy]phenyl]methyl]pyrrolidine-2-carboxamide], 120 nM. Consider `O=C(NCc1cccc(OCc2ccc(C(F)(F)F)cc2)c1)[C@@H]1CCCN1S(=O)(=O)c1ccccn1` [Example 202, (2S)-1-(2-pyridylsulfonyl)-N-[[3-[[4-(trifluoromethyl)phenyl]methoxy]phenyl]methyl]pyrrolidine-2-carboxamide], for which the IC50 came out at 400 nM.

Regarding `Cc1ccc(S(=O)(=O)N2CCC[C@H]2C(=O)NCc2cccc(OCc3ccc(C(F)(F)F)cc3)c2)o1` [Example 203, (2S)-1-[(5-methyl-2-foryl)sulfonyl]-N-[[3-[[4-(trifluoromethyl)phenyl]methoxy]phenyl]methyl]pyrrolidine-2-carboxamide], the IC50 was 170 nM. Consider `Cc1sccc1S(=O)(=O)N1CCC[C@H]1C(=O)NCc1cccc(OCc2ccc(C(F)(F)F)cc2)c1` [Example 204, (2S)-1-[(2-methyl-3-thienyl)sulfonyl]-N-[[3-[[4-(trifluoromethyl)phenyl]methoxy]phenyl]methyl]pyrrolidine-2-carboxamide], for which the IC50 was determined as 1000 nM. Regarding `O=C(NCc1cccc(OCc2ccc(C(F)(F)F)cc2)c1)[C@@H]1CCCN1S(=O)(=O)c1cnn(C(F)F)c1` [Example 205, (2S)-1-[1-(difluoromethyl)pyrazol-4-yl]sulfonyl-N-[[3-[[4-(trifluoromethyl)phenyl]methoxy]phenyl]methyl]pyrrolidine-2-carboxamide], the IC50 is 280 nM. Regarding `O=C(NCc1cccc(OCc2ccc(C(F)(F)F)cc2)c1)[C@@H]1CCCN1S(=O)(=O)c1cnc2ccccc2c1` [Example 206, (2S)-1-(3-quinolylsulfonyl)-N-[[3-[[4-(trifluoromethyl)phenyl]methoxy]phenyl]methyl]pyrrolidine-2-carboxamide], the IC50 stood at 290 nM. The result for `O=C(NCc1cccc(OCc2ccc(C(F)(F)F)cc2)c1)[C@@H]1CCCN1S(=O)(=O)c1ccc2ncccc2c1` [Example 207, (2S)-1-(6-quinolylsulfonyl)-N-[[3-[[4-(trifluoromethyl)phenyl]methoxy]phenyl]methyl]pyrrolidine-2-carboxamide] reads 1200 nM; that for `O=C(NCc1cccc(OCc2ccc(C(F)(F)F)cc2)c1)[C@@H]1CCCN1S(=O)(=O)c1cc2ccccc2s1` [Example 208, (2S)-1-(benzothiophen-2-ylsulfonyl)-N-[[3-[[4-(trifluoromethyl)phenyl]methoxy]phenyl]methyl]pyrrolidine-2-carboxamide], 87 nM; that for `O=C(NCc1cccc(OCc2ccc(C(F)(F)F)cc2)c1)[C@@H]1CCCN1S(=O)(=O)c1ccc2ncsc2c1` [Example 209, (2S)-1-(1,3-benzothiazol-6-ylsulfonyl)-N-[[3-[[4-(trifluoromethyl)phenyl]methoxy]phenyl]methyl]pyrrolidine-2-carboxamide], 2900 nM. Turning to `O=C(NCc1cccc(OCc2ccc(C(F)(F)F)cc2)c1)[C@@H]1CCCN1S(=O)(=O)c1ccc2nsnc2c1` [Example 210, (2S)-1-(2,1,3-benzothiadiazol-5-ylsulfonyl)-N-[[3-[[4-(trifluoromethyl)phenyl]methoxy]phenyl]methyl]pyrrolidine-2-carboxamide], the IC50 came out at 150 nM. Turning to `O=C(NCc1cccc(OCc2ccc(C(F)(F)F)cc2)c1)[C@@H]1CCCN1S(=O)(=O)c1cccc2nsnc12` [Example 211, (2S)-1-(2,1,3-benzothiadiazol-4-ylsulfonyl)-N-[[3-[[4-(trifluoromethyl)phenyl]methoxy]phenyl]methyl]pyrrolidine-2-carboxamide], the IC50 stood at 5500 nM. For the compound `O=C(NCc1cccc(OCc2ccc(C(F)(F)F)cc2)c1)[C@@H]1CCCN1S(=O)(=O)c1cccc2nonc12` [Example 212, (2S)-1-(2,1,3-benzoxadiazol-4-ylsulfonyl)-N-[[3-[[4-(trifluoromethyl)phenyl]methoxy]phenyl]methyl]pyrrolidine-2-carboxamide], the IC50 was found to be 6200 nM. In the case of `O=C(NCc1cccc(OCc2ccc(C(F)(F)F)cc2)c1)[C@@H]1CC=CCN1S(=O)(=O)c1ccc(F)cc1` [Example 213, (2S)-1-(4-fluorophenyl)sulfonyl-N-[[3-[[4-(trifluoromethyl)phenyl]methoxy]phenyl]methyl]-3,6-dihydro-2H-pyridine-2-carboxamide], the IC50 was determined as 350 nM.

(Values after patent publication US20150284375A1 (AJINOMOTO CO., INC., priority 2012, published 2015).)
